The assay has as its target PD-1/PD-L1 (Homo sapiens (Human), UniProt Q9NZQ7). As to the kind of experiment: PD-1/PD-L1 binding assay (HTRF). On the procedure: The assays were conducted in a standard black 384-well polystyrene plate with a final volume of 20 μL. Inhibitors were first serially diluted in DMSO and then added to the plate wells before the addition of other reaction components. The final concentration of DMSO in the assay was 1%. The assays were carried out at 25° C. in the PBS buffer (pH 7.4) with 0.05% Tween-20 and 0.1% BSA. Recombinant human PD-L1 protein (19-238) with a His-tag at the C-terminus was purchased from AcroBiosystems (PD1-H5229). Recombinant human PD-1 protein (25-167) with Fc tag at the C-terminus was also purchased from AcroBiosystems (PD1-H5257). PD-L1 and PD-1 proteins were diluted in the assay buffer and 10 μL was added to the plate well. Plates were centrifuged and proteins were preincubated with inhibitors for 40 minutes. The incubation was followed by the addition of 10 μL of HTRF detection buffer supplemented with Europium cryptate-labeled anti-human IgG (PerkinElmer-AD0212) specific for Fc and anti-His antibody conjugated to SureLight®-Allophycocyanin (APC, PerkinElmer-AD0059H). After centrifugation, the plate was incubated at 25° C. for 60 min. before reading on a PHERAstar FS plate reader (665 nm/620 nm ratio). Final concentrations in the assay were […], 10 nM PD-L1, 1 nM europium anti-human IgG and 20 nM anti-His-Allophycocyanin. IC50 determination was performed by fitting the curve of percent control activity versus the log of the inhibitor concentration using the GraphPad Prism 5.0 software.
A general note: TR-FRET usually uses a lanthanide donor and a delayed reading to cut background.
PD-1/PD-L1, sequence (Q9NZQ7 19-238): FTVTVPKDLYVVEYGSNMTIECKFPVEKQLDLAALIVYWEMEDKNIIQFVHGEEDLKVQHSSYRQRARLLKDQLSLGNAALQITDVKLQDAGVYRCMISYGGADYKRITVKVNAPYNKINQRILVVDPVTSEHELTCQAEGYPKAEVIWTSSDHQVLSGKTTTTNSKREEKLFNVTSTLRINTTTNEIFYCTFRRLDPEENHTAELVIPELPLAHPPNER
With `CN1CCc2c(nc(C(=O)Nc3cccc(-c4cccc(NC(=O)c5nc6c(n5C)CCN(C[C@H]5CC[C@H](C(=O)O)CC5)C6)c4C#N)c3Cl)n2C)C1` [Compound 147, trans-4-((2-((2′-chloro-2-cyano-3′-(1,5-dimethyl-4,5,6,7-tetrahydro-1H-imidazo[4,5-c]pyridine-2-carboxamido)-[1,1′-biphenyl]-3-yl)carbamoyl)-1-methyl-1,4,6,7-tetrahydro-5H-imidazo[4,5-c]pyridin-5-yl)methyl)cyclohexane-1-carboxylic acid], the IC50 (as a rule, the concentration needed to halve the response being measured) is at most 10 nM.
`CN1CCc2c(nc(C(=O)Nc3cccc(-c4cccc(NC(=O)c5nc6c(n5C)CCN(C[C@H]5CC[C@H](C(=O)O)CC5)C6)c4Cl)c3C#N)n2C)C1` [Compound 149, trans-4-((2-((2-chloro-2′-cyano-3′-(1,5-dimethyl-4,5,6,7-tetrahydro-1H-imidazo[4,5-c]pyridine-2-carboxamido)-[1,1′-biphenyl]-3-yl)carbamoyl)-1-methyl-1,4,6,7-tetrahydro-5H-imidazo[4,5-c]pyridin-5-yl)methyl)cyclohexane-1-carboxylic acid] had an IC50 of at most 10 nM.
Then `CN1CCc2c(nc(C(=O)Nc3cccc(-c4cccc(NC(=O)c5nc6c(n5C)CCN(CC[C@H]5CC[C@H](C(=O)O)CC5)C6)c4Cl)c3C#N)n2C)C1` [Compound 150, trans-4-(2-(2-(2-chloro-2′-cyano-3′-(1,5-dimethyl-4,5,6,7-tetrahydro-1H-imidazo[4,5-c]pyridine-2-carboxamido)biphenyl-3-ylcarbamoyl)-1-methyl-6,7-dihydro-1H-imidazo[4,5-c]pyridin-5(4H)-yl)ethyl)cyclohexane-1-carboxylic acid], with at most 10 nM; and `CCN1CCc2c(nc(C(=O)Nc3cccc(-c4cccc(NC(=O)c5nc6c(n5C)CCN(CC[C@H]5CC[C@H](C(=O)O)CC5)C6)c4Cl)c3C#N)n2C)C1` [Compound 151, trans-4-(2-(2-((2-chloro-2′-cyano-3′-(5-ethyl-1-methyl-4,5,6,7-tetrahydro-1H-imidazo[4,5-c]pyridine-2-carboxamido)-[1,1′-biphenyl]-3-yl)carbamoyl)-1-methyl-1,4,6,7-tetrahydro-5H-imidazo[4,5-c]pyridin-5-yl)ethyl)cyclohexane-1-carboxylic acid], with at most 10 nM; and `CC(C)N1CCc2c(nc(C(=O)Nc3cccc(-c4cccc(NC(=O)c5nc6c(n5C)CCN(CC[C@H]5CC[C@H](C(=O)O)CC5)C6)c4Cl)c3C#N)n2C)C1` [Compound 152, trans-4-(2-(2-((2-chloro-2′-cyano-3′-(5-isopropyl-1-methyl-4,5,6,7-tetrahydro-1H-imidazo[4,5-c]pyridine-2-carboxamido)-[1,1′-biphenyl]-3-yl)carbamoyl)-1-methyl-1,4,6,7-tetrahydro-5H-imidazo[4,5-c]pyridin-5-yl)ethyl)cyclohexane-1-carboxylic acid], with at most 10 nM.
With `Cn1c(C(=O)Nc2cccc(-c3cccc(NC(=O)c4nc5c(n4C)CCN(C4CCOCC4)C5)c3C#N)c2Cl)nc2c1CCN(CC[C@H]1CC[C@H](C(=O)O)CC1)C2` [Compound 153, trans-4-(2-(2-((2-chloro-2′-cyano-3′-(1-methyl-5-(tetrahydro-2H-pyran-4-yl)-4,5,6,7-tetrahydro-1H-imidazo[4,5-c]pyridine-2-carboxamido)-[1,1′-biphenyl]-3-yl)carbamoyl)-1-methyl-1,4,6,7-tetrahydro-5H-imidazo[4,5-c]pyridin-5-yl)ethyl)cyclohexane-1-carboxylic acid], the IC50 was at most 10 nM.
As for `CCN1CCc2c(nc(C(=O)Nc3cccc(-c4cccc(NC(=O)c5nc6c(n5C)CCN(CC[C@H]5CC[C@H](C(=O)O)CC5)C6)c4C#N)c3Cl)n2C)C1` [Compound 154, trans-4-(2-(2-((2′-chloro-2-cyano-3′-(5-ethyl-1-methyl-4,5,6,7-tetrahydro-1H-imidazo[4,5-c]pyridine-2-carboxamido)-[1,1′-biphenyl]-3-yl)carbamoyl)-1-methyl-1,4,6,7-tetrahydro-5H-imidazo[4,5-c]pyridin-5-yl)ethyl)cyclohexane-1-carboxylic acid], the IC50 is at most 10 nM.
As to `CC(C)N1CCc2c(nc(C(=O)Nc3cccc(-c4cccc(NC(=O)c5nc6c(n5C)CCN(CC[C@H]5CC[C@H](C(=O)O)CC5)C6)c4C#N)c3Cl)n2C)C1` [Compound 155, trans-4-(2-(2-((2′-chloro-2-cyano-3′-(5-isopropyl-1-methyl-4,5,6,7-tetrahydro-1H-imidazo[4,5-c]pyridine-2-carboxamido)-[1,1′-biphenyl]-3-yl)carbamoyl)-1-methyl-1,4,6,7-tetrahydro-5H-imidazo[4,5-c]pyridin-5-yl)ethyl)cyclohexane-1-carboxylic acid], the IC50 was at most 10 nM.
On to `CCN1CCc2c(nc(C(=O)Nc3cccc(-c4cccc(NC(=O)c5nc6c(n5C)CCN(C[C@H]5CC[C@H](C(=O)O)CC5)C6)c4C#N)c3Cl)n2C)C1` [Compound 156, trans-4-((2-((2′-chloro-2-cyano-3′-(5-ethyl-1-methyl-4,5,6,7-tetrahydro-1H-imidazo[4,5-c]pyridine-2-carboxamido)-[1,1′-biphenyl]-3-yl)carbamoyl)-1-methyl-1,4,6,7-tetrahydro-5H-imidazo[4,5-c]pyridin-5-yl)methyl)cyclohexane-1-carboxylic acid], for which the IC50 was at most 10 nM.
`Cn1c(C(=O)Nc2cccc(-c3cccc(NC(=O)c4nc5c(n4C)CCN(C[C@H]4CC[C@H](C(=O)O)CC4)C5)c3C#N)c2Cl)nc2c1CCN(C1CCOCC1)C2` [Compound 157, trans-4-((2-((2′-chloro-2-cyano-3′-(1-methyl-5-(tetrahydro-2H-pyran-4-yl)-4,5,6,7-tetrahydro-1H-imidazo[4,5-c]pyridine-2-carboxamido)-[1,1′-biphenyl]-3-yl)carbamoyl)-1-methyl-1,4,6,7-tetrahydro-5H-imidazo[4,5-c]pyridin-5-yl)methyl)cyclohexane-1-carboxylic acid]: the IC50 is at most 10 nM.
Then `Cc1c(-c2nc3c(s2)CN(C(=O)CN(C)C(C)C)C3)cccc1-c1cccc(NC(=O)c2nc3c(n2C)CCN(C[C@H]2CC[C@H](C(=O)O)CC2)C3)c1Cl` [Compound 158, trans-4-((2-(2-chloro-3′-(5-(2-(isopropyl(methyl)amino)acetyl)-5,6-dihydro-4H-pyrrolo[3,4-d]thiazol-2-yl)-2′-methylbiphenyl-3-ylcarbamoyl)-1-methyl-6,7-dihydro-1H-imidazo[4,5-c]pyridin-5(4H)-yl)methyl)cyclohexane-1-carboxylic acid], with at most 10 nM; and `Cc1c(-c2nc3c(o2)CN(C(=O)CN2CC[C@](C)(C(=O)O)C2)C3)cccc1-c1cccc(NC(=O)c2nc3c(n2C)CCN(C)C3)c1Cl` [Compound 163, (S)-1-(2-(2-(2′-chloro-3′-(1,5-dimethyl-4,5,6,7-tetrahydro-1H-imidazo[4,5-c]pyridine-2-carboxamido)-2-methyl-[1,1′-biphenyl]-3-yl)-4,6-dihydro-5H-pyrrolo[3,4-d]oxazol-5-yl)-2-oxoethyl)-3-methylpyrrolidine-3-carboxylic acid], with at most 10 nM; and `Cc1c(-c2nc3c(o2)CN(C(=O)CN[C@@H](C)CO)C3)cccc1-c1cccc(NC(=O)c2nc3c(n2C)CCN(C)C3)c1Cl` [Compound 164, (S)—N-(2-chloro-3′-(5-((S)-(1-hydroxypropan-2-yl)glycyl)-5,6-dihydro-4H-pyrrolo[3,4-d]oxazol-2-yl)-2′-methyl-[1,1′-biphenyl]-3-yl)-1,5-dimethyl-4,5,6,7-tetrahydro-1H-imidazo[4,5-c]pyridine-2-carboxamide], with at most 10 nM.
Under `Cc1c(-c2nc3c(o2)CN(C(=O)CN[C@H]2C[C@@H](O)C2)C3)cccc1-c1cccc(NC(=O)c2nc3c(n2C)CCN(C)C3)c1Cl` [Compound 165, N-(2-chloro-3′-(5-((cis-3-hydroxycyclobutyl)glycyl)-5,6-dihydro-4H-pyrrolo[3,4-d]oxazol-2-yl)-2′-methyl-[1,1′-biphenyl]-3-yl)-1,5-dimethyl-4,5,6,7-tetrahydro-1H-imidazo[4,5-c]pyridine-2-carboxamide] stands at most 10 nM; under `Cc1c(-c2nc3c(o2)CN(C(=O)CN[C@H]2C[C@H](O)C2)C3)cccc1-c1cccc(NC(=O)c2nc3c(n2C)CCN(C)C3)c1Cl` [Compound 166, N-(2-chloro-3′-(5-((trans-3-hydroxycyclobutyl)glycyl)-5,6-dihydro-4H-pyrrolo[3,4-d]oxazol-2-yl)-2′-methyl-[1,1′-biphenyl]-3-yl)-1,5-dimethyl-4,5,6,7-tetrahydro-1H-imidazo[4,5-c]pyridine-2-carboxamide], at most 10 nM.
Then `Cc1c(-c2nc3c(o2)CN(C(=O)CN2CCC(C(=O)O)CC2)C3)cccc1-c1cccc(NC(=O)c2nc3c(n2C)CCN(C)C3)c1Cl` [Compound 167, 1-(2-(2-(2′-chloro-3′-(1,5-dimethyl-4,5,6,7-tetrahydro-1H-imidazo[4,5-c]pyridine-2-carboxamido)-2-methyl-[1,1′-biphenyl]-3-yl)-4,6-dihydro-5H-pyrrolo[3,4-d]oxazol-5-yl)-2-oxoethyl)piperidine-4-carboxylic acid], with at most 10 nM.

Source of the values: patent publication US10806785B2, “Immunomodulator compounds and methods of use” (Incyte Corporation, priority 2016, dated 2020).
